# Measured values published in US20250115558A1, “PYRIDAZINE DERIVATIVES AND RELATED USES” (NodThera Limited, priority 2023, published 2025).
# Structures can show the parent of a compound that is named as a salt.
# Columns and labels:
# [1] = system: THP-1; test: THP-1 IC50 assay; type: cell-based; conditions: Homo sapiens; THP-1 cells
# [2] = system: IL-1β release upon NLRP3 activation in peripheral blood mononuclear cells (PBMC); test: PBMC IC50 Determination Assay; type: cell-based; conditions: Homo sapiens; inhibition of IL-1β release; LPS-primed PBMC stimulated with ATP or nigericin
# Experimental: The compounds of the present disclosure were tested for their inhibitory activity against IL-1β release upon NLRP3 activation in peripheral blood mononuclear cells (PBMC).
# Protocol A. PBMC were isolated from buffy coats by density gradient centrifugation on Histopaque-1077 (Sigma, cat no. 10771). Isolated cells were seeded into the wells of a 96-well plate and incubated for 3 h with lipopolysaccharide (LPS). Following medium exchange, the compounds of the present disclosure were added (a single compound per well) and the cells were incubated for 30 min. Next, the cells were stimulated either with ATP (5 mM) or nigericin (10 μM) for 1 h and the cell culture media from the wells were collected for further analysis.
# The release of IL-1β into the media was determined by a quantitative detection of IL-1β in the media using an IL-1β enzyme-linked immunosorbent assay (ELISA) Ready-SET-Go!, eBioscience cat. No. 88-7261-88. Briefly, in a first step, high affinity binding plates (Corning, Costar 9018 or NUNC Maxisorp Cat No. 44-2404) were coated overnight at 4° C. with specific capture antibody included in the kit (anti-human IL-1β ref. 14-7018-68). Subsequently, plates were blocked with blocking buffer for 1 h at room temperature (rt) and after washing with a buffer (PBS with 0.05% Tween-20) incubated with protein standard and culture media. After 2 h of incubation at rt, plates were washed and incubated with biotinylated detection antibody included in the kit (anti-human IL-1β Biotin ref. 33-7110-68) for 1 h at rt. Plates were washed and incubated with HRP-streptavidin for 30 min at rt and washed again. The signal was developed after addition of 3,3′,5,5′-tetramethylbenzidine-peroxidase (TMB) until colour appeared and the reaction was stopped by 2 M H2SO4. A microplate spectrophotometer (BioTek) was used to detect signals with 450 nm. The detection range of IL-1β ELISA was […].
# Protocol B. PBMC were isolated from buffy coats by density gradient centrifugation on Histopaque-1077 (Sigma, cat no. 10771). Isolated cells were seeded into the wells (280,000 cells/well) of a 96-well plate and incubated for 3 h with lipopolysaccharide (LPS, 1 μg/mL diluted 1000× from a 1 mg/mL stock solution). The compounds of the present disclosure were added (a single compound per well) and the cells were incubated for 30 min. Next, the cells were stimulated with ATP (5 mM final concentration diluted 20× from a 100 mM stock solution) for 1 h and the cell culture media from the wells were collected for further analysis.
# The release of IL-1β into the media was determined by quantitative detection of IL-1β in the media using HTRF®, CisBio cat. No. 62HIL1BPEH. Briefly, cell culture supernatant were dispensed directly into the assay plate containing antibodies labelled with the HTRF® donor and acceptor. A microplate spectrophotometer (BMG) was used to detect signals at 655 nm and 620 nm. The detection range of IL-1β HTRF® was 39-6500 μg/mL.
smiles,measurement,setting,value
"Cc1cc(Cl)cc(O)c1-c1ccc(CN[C@@H]2CCC(=O)N(C)C2)nn1 [Compound 66, (R)-5-(((6-(4-Chloro-2-hydroxy-6-methylphenyl)pyridazin-3-yl)methyl)amino)-1-methylpiperidin-2-one]",IC50,[1],1000 to 3000 nM
same,IC50,[2],500 to 1000 nM
Cc1cc(C(F)(F)F)cc(O)c1-c1ccc(CNc2cncnc2)nn1 [Compound 26],IC50,[1],1000 to 3000 nM
same,IC50,[2],500 to 1000 nM
Cc1cc(C(F)(F)F)cc(O)c1-c1ccc(CNc2cnsc2)nn1 [Compound 150],IC50,[1],< 500 nM
same,IC50,[2],< 500 nM
Cc1cc(C(F)(F)F)cc(O)c1-c1ccc(CNCCC(C)(C)O)nn1 [Compound 118],IC50,[1],3000 to 10000 nM
same,IC50,[2],1000 to 3000 nM
"Oc1cc(C(F)(F)F)cc(C(F)(F)F)c1-c1ccc(CNC2CCOCC2)nn1 [Compound 85, 2-(6-{[(Oxan-4-yl)amino]methyl}pyridazin-3-yl)-3,5-bis(trifluoromethyl)phenol]",IC50,[1],1000 to 3000 nM
same,IC50,[2],1000 to 3000 nM
"Cc1cc(C(F)(F)F)cc(O)c1-c1ccc(CN2CC[C@H](F)C2)nn1 [Compound 35, (S)-2-(6-((3-Fluoropyrrolidin-1-yl)methyl)pyridazin-3-yl)-3-methyl-5-(trifluoromethyl)phenol]",IC50,[1],500 to 1000 nM
same,IC50,[2],500 to 1000 nM
"Cc1cc(Cl)cc(O)c1-c1ccc(COC2COC2)nn1 [Compound 65, 5-Chloro-3-methyl-2-(6-((oxetan-3-yloxy)methyl)pyridazin-3-yl)phenol]",IC50,[1],500 to 1000 nM
same,IC50,[2],< 500 nM
"Cc1cc(C(F)(F)F)cc(O)c1-c1ccc(CN2CCC(F)(F)C2)nn1 [Compound 38, 2-(6-((3,3-Difluoropyrrolidin-1-yl)methyl)pyridazin-3-yl)-3-methyl-5-(trifluoromethyl)phenol]",IC50,[1],500 to 1000 nM
same,IC50,[2],< 500 nM
"Cc1cc(C2CC2)cc(O)c1-c1ccc(CNC2CCOCC2)nn1 [Compound 48, 5-Cyclopropyl-3-methyl-2-(6-(((tetrahydro-2H-pyran-4-yl)amino)methyl)pyridazin-3-yl)phenol]",IC50,[1],1000 to 3000 nM
same,IC50,[2],1000 to 3000 nM
Cc1cc(C(F)(F)F)cc(O)c1-c1ccc(CN2CCN(C)CC2)nn1 [Compound 131],IC50,[1],3000 to 10000 nM
same,IC50,[2],1000 to 3000 nM
Cc1cc(C(F)(F)F)cc(O)c1-c1ccc(CNCc2cccs2)nn1 [Compound 141],IC50,[1],1000 to 3000 nM
same,IC50,[2],< 500 nM
Cc1cc(C(F)(F)F)cc(O)c1-c1ccc(CNCc2ccccc2)nn1 [Compound 138],IC50,[1],1000 to 3000 nM
same,IC50,[2],500 to 1000 nM
COCCNCc1ccc(-c2c(C)cc(C(F)(F)F)cc2O)nn1 [Compound 115],IC50,[1],1000 to 3000 nM
same,IC50,[2],1000 to 3000 nM
Cc1cc(C(F)(F)F)cc(O)c1-c1ccc(CNC2CCN(C)C2=O)nn1 (stereo not shown) [Compound 113],IC50,[1],1000 to 3000 nM
same,IC50,[2],500 to 1000 nM
"CO[C@@H]1CCN(Cc2ccc(-c3c(C)cc(Cl)cc3O)nn2)C1 [Compound 60, (R)-5-Chloro-2-(6-((3-methoxypyrrolidin-1-yl)methyl)pyridazin-3-yl)-3-methylphenol]",IC50,[1],1000 to 3000 nM
same,IC50,[2],1000 to 3000 nM
Cc1cc(C(F)(F)F)cc(O)c1-c1ccc(CN2CCCC2)nn1 [Compound 133],IC50,[1],500 to 1000 nM
same,IC50,[2],< 500 nM
"Cc1cc(C(F)(F)F)cc(O)c1-c1ccc(CNC(=O)C2CCOCC2)nn1 [Compound 7, N-((6-(2-Hydroxy-6-methyl-4-(trifluoromethyl)phenyl)pyridazin-3-yl)methyl)tetrahydro-2H-pyran-4-carboxamide]",IC50,[1],3000 to 10000 nM
same,IC50,[2],3000 to 10000 nM
"Cc1cc(C(F)(F)F)cc(O)c1-c1ccc(CNC2CCOCC2)nn1 [Compound 1, 3-Methyl-2-(6-(((tetrahydro-2H-pyran-4-yl)amino)methyl)pyridazin-3-yl)-5-(trifluoromethyl)phenol]",IC50,[1],500 to 1000 nM
same,IC50,[2],500 to 1000 nM
Cc1cc(C(F)(F)F)cc(O)c1-c1ccc(CN(C)C2CCOCC2)nn1 [Compound 129],IC50,[1],1000 to 3000 nM
same,IC50,[2],1000 to 3000 nM
Cc1cc(C(F)(F)F)cc(O)c1-c1ccc(CNCC(F)(F)F)nn1 [Compound 95],IC50,[1],< 500 nM
same,IC50,[2],< 500 nM
"Cc1cc(C(F)(F)F)cc(O)c1-c1ccc(CNc2ccccn2)nn1 [Compound 78, 3-Methyl-2-(6-{[(pyridin-2-yl)amino]methyl}pyridazin-3-yl)-5-(trifluoromethyl)phenol]",IC50,[1],≥ 10000 nM
same,IC50,[2],≥ 10000 nM
"Cc1cc(NCc2ccc(-c3c(C)cc(C(F)(F)F)cc3O)nn2)no1 [Compound 31, 3-Methyl-2-(6-(((5-methylisoxazol-3-yl)amino)methyl)pyridazin-3-yl)-5-(trifluoromethyl)phenol]",IC50,[1],1000 to 3000 nM
same,IC50,[2],< 500 nM
"Cc1cc(OC(F)F)cc(O)c1-c1ccc(CNC2CCOCC2)nn1 [Compound 70, 5-(Difluoromethoxy)-3-methyl-2-(6-(((tetrahydro-2H-pyran-4-yl)amino)methyl)pyridazin-3-yl)phenol]",IC50,[1],1000 to 3000 nM
same,IC50,[2],1000 to 3000 nM
"Cc1cc(Cl)cc(O)c1-c1ccc(CO[C@H]2CCOC2)nn1 [Compound 64, (S)-5-Chloro-3-methyl-2-(6-(((tetrahydrofuran-3-yl)oxy)methyl)pyridazin-3-yl)phenol]",IC50,[1],< 500 nM
same,IC50,[2],< 500 nM
"Cc1cc(Cl)cc(O)c1-c1ccc(CNc2c(C)noc2C)nn1 [Compound 56, 5-Chloro-2-(6-(((3,5-dimethylisoxazol-4-yl)amino)methyl)pyridazin-3-yl)-3-methylphenol]",IC50,[1],1000 to 3000 nM
same,IC50,[2],500 to 1000 nM
COC1CCC(NCc2ccc(-c3c(C)cc(C(F)(F)F)cc3O)nn2)CC1 (stereo not shown) [Compound 140],IC50,[1],500 to 1000 nM
same,IC50,[2],< 500 nM
Cc1cc(C(F)(F)F)cc(O)c1-c1ccc(CN2CCCCC2)nn1 [Compound 135],IC50,[1],< 500 nM
same,IC50,[2],< 500 nM
"Oc1cc(Cl)ccc1-c1ccc(CNC2CCOCC2)nn1 [Compound 16, 5-Chloro-2-(6-(((tetrahydro-2H-pyran-4-yl)amino)methyl)pyridazin-3-yl)phenol]",IC50,[1],1000 to 3000 nM
same,IC50,[2],≥ 10000 nM
"Cc1cc(C(F)(F)F)cc(O)c1-c1ccc(CNc2ncccn2)nn1 [Compound 74, 3-Methyl-2-(6-((pyrimidin-2-ylamino)methyl)pyridazin-3-yl)-5-(trifluoromethyl)phenol]",IC50,[1],1000 to 3000 nM
same,IC50,[2],1000 to 3000 nM
Cc1cc(C(F)(F)F)cc(O)c1-c1ccc(CN[C@H]2CCC(=O)N(C)C2)nn1 [Compound 88],IC50,[1],< 500 nM
same,IC50,[2],< 500 nM
"Cc1cc(C(F)(F)F)cc(O)c1-c1ccc(CN[C@@H]2CC(=O)N(C)C2)nn1 [Compound 50, (R)-4-(((6-(2-Hydroxy-6-methyl-4-(trifluoromethyl)phenyl)pyridazin-3-yl)methyl)amino)-1-methylpyrrolidin-2-one]",IC50,[1],3000 to 10000 nM
same,IC50,[2],1000 to 3000 nM
Cc1cc(C(F)(F)F)cc(O)c1-c1ccc(CN2C(=N)N(C)CC2=O)nn1 [Compound 23],IC50,[1],3000 to 10000 nM
same,IC50,[2],3000 to 10000 nM
"Cc1cc(F)cc(O)c1-c1ccc(CNC2CCOCC2)nn1 [Compound 52, 5-Fluoro-3-methyl-2-(6-(((tetrahydro-2H-pyran-4-yl)amino)methyl)pyridazin-3-yl)phenol]",IC50,[1],3000 to 10000 nM
same,IC50,[2],3000 to 10000 nM
Cc1cc(C(F)(F)F)cc(O)c1-c1ccc(CN[C@H]2CC[C@](C)(O)CC2)nn1 [Compound 152],IC50,[1],1000 to 3000 nM
same,IC50,[2],1000 to 3000 nM
Cc1cc(C(F)(F)F)cc(O)c1-c1ccc(CN2CCCC2=O)nn1 [Compound 134],IC50,[1],< 500 nM
same,IC50,[2],< 500 nM
Cc1cc(C(F)(F)F)cc(O)c1-c1ccc(CNCC2CCOCC2)nn1 [Compound 109],IC50,[1],3000 to 10000 nM
same,IC50,[2],3000 to 10000 nM
"Cc1cnc(NCc2ccc(-c3c(C)cc(C(F)(F)F)cc3O)nn2)s1 [Compound 83, 3-Methyl-2-(6-{[(5-methyl-1,3-thiazol-2-yl)amino]methyl}pyridazin-3-yl)-5-(trifluoromethyl)phenol]",IC50,[1],1000 to 3000 nM
same,IC50,[2],500 to 1000 nM
"Cc1cc(C(F)(F)F)cc(O)c1-c1ccc(COC2CCN(C)CC2)nn1 [Compound 45, 3-Methyl-2-(6-(((1-methylpiperidin-4-yl)oxy)methyl)pyridazin-3-yl)-5-(trifluoromethyl)phenol hydrochloride]",IC50,[1],1000 to 3000 nM
same,IC50,[2],1000 to 3000 nM
